# Laboratory results: patent publication US20170216240A1, “METHODS FOR MODULATING IKS CHANNEL ACTIVITY” (UNIVERSITY OF MIAMI, priority 2014, published 2017)
# “Also recorded” adds a separate entry of the source.
# Test system: isolated embryonic rat cardiomyocytes
# Experiment: Spontaneous action potentials in rat cardiomyocytes, whole-cell patch clamp
# Assay type: cell-based
# Conditions: for effect on arrhythmic firing induced by Chromanol 293B: 30 μM N-AT in the presence of 5 μM Chromanol 293B
# Experimental: On gestation day (GD) 16 of pregnancy time-mated Sprague Dawley rats (Taconic, Denmark) were sacrificed in a CO2 chamber followed by cervical dislocation. Cell preparation of cardiomyocytes and culturing on glass coverslips were made (Danielsson, C. et al. Cardiovasc Res 97, 23-32 (2013)). Spontaneous action potentials were measured using the patch-clamp technique, whole cell configuration, 1-3 days after culturing. An Axopatch 200B patch-clamp amplifier, Digidata 1140A converter (Molecular Devices) and pClamp software (Molecular Devices) were used to acquire data. The extracellular solution contained (in mM): 140 NaCl, 5.4 KCl, 1 MgCl2, 1.8 CaCl2, 10 Glucose and 10 HEPES (pH 7.4, adjusted with NaOH). The intracellular solution contained (in mM): 130 K-gluconate, 9 KCl, 8 NaCl, 10 EGTA, 1 MgCl2, 10 HEPES and 3 MgATP (pH 7.3, adjusted with KOH). The solutions were perfused through the recording chamber (flow: 0.5 mL/min). All chemicals were purchased from Sigma-Aldrich. […] All experiments were carried out at 35° C. To analyze action potential characteristics a stable 60-seconds recording was selected before and after application of the test solution. The average data were then calculated for the complete trace in Clampfit 10 (Molecular Devices). Liquid junction potential was not adjusted for.
# Average values are expressed as mean±SEM. Mean values for shifts in voltage dependence were analyzed using a two-tailed one samplet-test where mean values were compared with a hypothetical value of 0 or where mean values were compared to each other. Effects of N-AT on action potential peak amplitude and RMP in cardiomyocytes were analyzed using paired two-tailed t-test. Effects of N-AT on the relative change of APD and RR-interval were analyzed using two-tailed one samplet-test where mean values were compared with a hypothetical value of 1. P<0.05 is considered as statistically significant.
# The effect of N-arachidonoyl taurine on isolated embryonic rat cardiomyocytes was tested. A sub-saturating concentration of the IKs channel blocker Chromanol 293B, which is known to induce arrhythmia (Aiba, T. et al. J Am Coll Cardiol 45, 300-307 (2005)), was applied to the cardiomyocytes. In general, two types of effects are seen upon Chromanol 293B application: (1) arrhythmic firing (FIG. 8A-B) or (2) a slowing of the frequency of spontaneous action potential firing (FIG. 8D-E). The different effects are most likely due to different subtypes of cardiomyocytes. […] The anti-arrhythmic effect of N-arachidonoyl taurine was associated with a shortening of the cardiomyocyte action potential duration and an increase in the frequency of action potential firing (FIG. 8G-I, Table 2). 30 μM N-arachidonoyl taurine had no effect on the resting membrane potential (Table 2) but decreased the action potential peak amplitude by −9±1 mV (Table 2).
# Cardiomyocytes were isolated from rat heart and the spontaneous electrical activity in the cardiomyocytes was measured using the current clamp mode of patch clamp. […] Further, arrhythmia was induced in these cardiomyocytes by the IKs specific drug chromanol. In the presence of 5 μM chromanol, there are clearly additional action potentials caused by early after depolarizations (EADs) (FIG. 9D). EADs are known to accompany Long QT and could lead to ventricular fibrillation and cardiac sudden death in the intact heart. […] N-AT and chromanol are known to bind to different parts of the IKs channels (chromanol is a pore blocker, whereas N-AT is binding to the voltage sensor), so this effect of N-AT is not just a competition with chromanol to the same binding site. Rather, N-AT increases the currents by attracting the voltage sensor, whereas chromanol is known to block the currents by binding to the pore.
# [1] = 30 μM N-AT vs control, listed as N-arachidonoyl taurine
structure (smiles),measurement,setting,value
"CCCCC/C=C\C/C=C\C/C=C\C/C=C\CCCC(=O)NCCS(=O)(=O)O [N-AT, N-arachidonoyl taurine]","APD30, Mean ± SEM",30 μM N-AT,211 ± 37 ms
same,"APD50, Mean ± SEM",30 μM N-AT,279 ± 47 ms
same,"APD70, Mean ± SEM",30 μM N-AT,336 ± 50 ms
same,"Amplpeak (peak action potential amplitude), Mean ± SEM",30 μM N-AT,32 ± 2 mV
same,"RMP (resting membrane potential), Mean ± SEM",30 μM N-AT,−56 ± 2 mV
same,"RR-interval, Mean ± SEM",30 μM N-AT,2075 ± 197 ms
same,length of the ventricular action potential / action potential duration,30 μM N-AT,reduced the length of the ventricular action potential; also recorded: shortened the cardiomyocyte action potential duration
same,effect on arrhythmic firing induced by Chromanol 293B,,restores rhythmic firing; also recorded: reversed the arrhythmic behavior
same,effect on arrhythmic firing induced by Chromanol 293B,listed as N-arachidonoyl taurine,reversed the effect
same,early after depolarizations (EADs),30 μM N-AT in the presence of 5 μM chromanol,removed these EADs
same,"APD30, Change (relative change)",30 μM N-AT vs control,0.81 ± 0.04
same,"APD50, Change (relative change)",30 μM N-AT vs control,0.83 ± 0.03
same,"APD70, Change (relative change)",30 μM N-AT vs control,0.84 ± 0.03
same,"Amplpeak, Change",30 μM N-AT vs control,−9 ± 1 mV
same,"RR-interval, Change (relative change)",30 μM N-AT vs control,0.74 ± 0.05
same,"Amplpeak, Change",[1],−9±1 mV
same,"RMP, Change",[1],no effect
